# Results reported in USRE48164E1, “Compounds and compositions for delivering active agents” (EMISPHERE TECHNOLOGIES INC., priority 2007, dated 2020).
# Columns and labels:
# [1] = tested on: male, Sprague-Dawley rats; experiment: Oral Delivery of Insulin in Rats: whole blood glucose after oral gavage of insulin with delivery agent compound; assay type: in vivo, rat; settings: sodium salt of delivery agent
# Method: Human recombinant insulin (ICN Biomedicals, Aurora, Ohio) was dissolved in deionized water (ph˜6.5) to obtain stock insulin solutions having a concentration of 15 mg/ml. Sodium salts of the delivery agent compounds shown below in table 1 dissolved in deionized water to obtain a 200 mg/ml delivery agent solution. The free acid form of delivery agent as converted to the sodium salt by adding one equivalent of sodium hydroxide. Solutions were vortexted, sonicated, and heated. If necessary, additional sodium hydroxide was added in μl quantities to achieve uniform solubility in the delivery agent solutions. Solutions were adjusted to a pit of 3.5-8.5 by the addition of either hydrochloric acid or sodium hydroxide, as appropriate. The insulin stock solution was then added to the delivery agent solutions to obtain an administration solution ultimately having an insulin concentration of 0.5 mg/ml. After solubilization and drug addition, administration solutions were brought to a final volume by the addition of deionized water.
# Insulin was administered to male, Sprague-Dawley rats either alone or in combination with delivery agent by oral gavage (PO). Rats, weighing 0.22 to 0.27 kg, were fasted for 18-24 hours prior to dosing. A Rusch 8 French catheter was cut to 11 cm in length and adapted to fit a 1 ml syringe. The syringe was filled with dosing solution and the catheter was inserted into the at mouth and fed down the esophagus (10.0 cm). The dosing solution was delivered by pressing the syringe plunger while holding the rat in an upright position. The doses of delivery agent and insulin were 200 mg/kg and […], respectively unless noted otherwise in Table 1. The dose volume was […].
# Immediate to each blood sampling point, rats were exposed briefly (˜10 seconds) to carbon dioxide until prostrate. A 77-nun capillary tube was inserted into the retroorbital sinus. Typically, blood samples were collected prior to dosing (time=0) and at 15, 30, 45, and 60 minutes after dosing.
# To determine the pharmacodynamic response, a hand-held glucometer (OneTouch Ultra, LifeScan—Johnson & Johnson, New Brunswick, N.J.) was used to measure whole blood glucose after administration of insulin or insulin and delivery agent. After discarding the first drop of blood, a small sample (˜5-10 μls) was touched to the glucometer test strip (OneTouch Ultra, LifeScan) and a blood glucose reading was generated by the meter. Samples at the times indicated below in Table 1 after dosing.
# [2] = insulin 0.5 mg/kg, delivery agent 100 mg/kg, time period 30 minutes
# [3] = insulin 0.5 mg/kg, delivery agent 100 mg/kg, time period 45 minutes
# [4] = insulin 0.5 mg/kg, delivery agent 200 mg/kg, time period 30 minutes
compound,measurement,setting,value
"Cc1ccc(C)c(OCCCC(=O)O)c1 [Compound 1, 4-(2,5-Dimethylphenoxy)butyric acid]",Average Glucose Reduction (5 rats/experiment),"[1]; insulin 0.05 mg/kg, delivery agent 200 mg/kg, time period 15 minutes",−16.1%
same,Average Glucose Reduction (5 rats/experiment),"[1]; insulin 0.10 mg/kg, delivery agent 200 mg/kg, time period 30 minutes",−13.0%
same,Average Glucose Reduction (5 rats/experiment),"[1]; insulin 0.3 mg/kg, delivery agent 200 mg/kg, time period 45 minutes",−34.0%
same,Average Glucose Reduction (5 rats/experiment),[1]; [2],−31.4%
same,Average Glucose Reduction (5 rats/experiment),[1]; [3],−60.6%
"CC(=O)c1cccc(OCCCCCC(=O)O)c1 [Compound 2, 6-(3-Acetylphenoxy)hexanoic acid]",Average Glucose Reduction (5 rats/experiment),"[1]; insulin 0.5 mg/kg, delivery agent 25 mg/kg, time period 45 minutes",−25.8%
same,Average Glucose Reduction (5 rats/experiment),"[1]; insulin 0.5 mg/kg, delivery agent 50 mg/kg, time period 45 minutes",−30.2%
same,Average Glucose Reduction (5 rats/experiment),[1]; [3],−50.8%
Cc1cccc(OCCCC(=O)O)c1 [Compound 6],Average Glucose Reduction (5 rats/experiment),"[1]; insulin 0.25 mg/kg, delivery agent 100 mg/kg, time period 45 minutes",−30.9%
same,Average Glucose Reduction (5 rats/experiment),[1]; [3],−39.3%
same,Average Glucose Reduction (5 rats/experiment),"[1]; insulin 0.5 mg/kg, delivery agent 200 mg/kg, time period 60 minutes",−14.4%
same,melting point,,53 to 54 °C
"O=C(O)CCCOc1cccc(F)c1 [Compound 7, 4-(3-Fluorophenoxy)butyric acid]",melting point,,53 to 54 °C
"O=C(O)CCCOc1ccccc1Cl [Compound 8, 4-(2-Chlorophenoxy)butanoic acid]",melting point,,85 to 87 °C
"CC(C)(Oc1ccc(Cl)cc1)C(=O)NCCCCCC(=O)O [Compound 10, 6-[2-(4-Chlorophenoxy)-2-methylpropionyl]-aminohexanoic acid]",Average Glucose Reduction (5 rats/experiment),[1]; [4],2.5%
"Cc1cc(F)ccc1OCCCC(=O)O [Compound 11, 4-(4-Fluoro-2-methyl-phenoxy)-butyric aid]",Average Glucose Reduction (5 rats/experiment),[1]; [4],−63.7%
same,Average Glucose Reduction (5 rats/experiment),"[1]; insulin 0.5 mg/kg, delivery agent 200 mg/kg, time period 45 minutes",−78.0%
"Cc1ccc(F)c(OCCCC(=O)O)c1 [Compound 12, 4-(2-Fluoro-5-methyl-phenoxy)-butyric acid]",Average Glucose Reduction (5 rats/experiment),"[1]; insulin 0.25 mg/kg, delivery agent 100 mg/kg, time period 30 minutes",−41.0%
same,Average Glucose Reduction (5 rats/experiment),"[1]; insulin 0.5 mg/kg, delivery agent 25 mg/kg, time period 60 minutes",−13.1%
same,Average Glucose Reduction (5 rats/experiment),"[1]; insulin 0.5 mg/kg, delivery agent 50 mg/kg, time period 60 minutes",−25.7%
same,Average Glucose Reduction (5 rats/experiment),[1]; [2],−47.9%
